# Reference: patent US20260034123A1 (Cedilla Therapeutics, Inc., priority 2022, published 2026)
# Where “and” joins values, the source holds several entries; their conditions need not be identical. Equal entries are not always repeated.
# Key:
# CDK2/Cyclin E1 [1] = molecular target: T1, CDK2/Cyclin E1 (Homo sapiens, UniProt P24941); test: Caliper LabChip EZ Reader mobility shift assay; type: biochemical; settings: 2.5 nM CDK2/Cyclin E1(14-475), 100 μM ATP, 30 min preincubation; read-out: Caliper Assay (CDK2/CCNE1): IC50
# In short: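 Mobility-shift assay with CDK2/Cyclin E1(14-475) at 2.5 nM, 100 μM ATP and 1.5 μM 5-FAM-QSPKKG-CONH2 in HEPES pH 7.5 buffer with 0.1% DMSO. Compounds were preincubated with enzyme and ATP for 30 min, the reaction ran 100 min and was stopped with EDTA. IC50 came from a four-parameter fit of normalized conversion ratio.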
# CDK2/Cyclin E1 [2] = molecular target: T1, CDK2/Cyclin E1; test: ADP-Glo Luminescent Kinase Assay (CDK2/E1-37C); type: biochemical; settings: 0.18 nM CDK2/Cyclin E1, 100 μM ATP, Histone H1, 37° C.; read-out: ADPGLO (CDK2/E1-37C): IC50
# In short: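 Activated CDK2/Cyclin E1 (0.18 nM final) preincubated with compound 60 min at 37 °C, then reacted with 100 μM ATP and Histone H1 ([…]) for 90 min at 37 °C in HEPES pH 7.5 buffer. ADP-Glo luminescence normalized to % activity; IC50 from four-parameter fit.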
# Kuramochi cells RB-WT = test: IncuCyte Kuramochi cell proliferation assay, RB-WT; type: cell-based; settings: 72 hours, cell count
# In short: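 mApple-H2B-labelled Kuramochi cells were treated with a 10-point, half-log series (top 20 µM) and imaged at 0 and 72 h. Fluorescent nuclei were counted, and the 0–72 h fold change was normalized to DMSO wells. GI50 came from dose-response fits.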
# [3] = system: mouse models of polycystic kidney disease; settings: Bukanov et al., Nature 2006; cited from earlier work
smiles,measurement,setting,value
"CC1(C)C[C@@H]1C(=O)N1CC2(CN(C(=O)c3cncs3)C[C@H]2COCc2cccc(-c3ccc(C(F)(F)F)cc3)n2)C1 [Compound I-34, ((S)-2-((S)-2,2-dimethylcyclopropane-1-carbonyl)-8-(((6-(4-(trifluoromethyl)phenyl)pyridin-2-yl)methoxy)methyl)-2,6-diazaspiro[3.4]octan-6-yl)(thiazol-5-yl)methanone]",IC50,CDK2/Cyclin E1 [1],0.01 to 0.1 µM
same,IC50,CDK2/Cyclin E1 [2],0.5 to 5 µM
same,IC50,Kuramochi cells RB-WT,5 to 10 µM
"CC1(C)C[C@@H]1C(=O)N1CC2(CN(C(=O)c3cncs3)C[C@H]2COCc2cccc(-c3ccccc3)n2)C1 [Compound I-36, ((S)-2-((S)-2,2-dimethylcyclopropanecarbonyl)-8-(((6-phenylpyridin-2-yl)methoxy)methyl)-2,6-diazaspiro[3.4]octan-6-yl)(thiazol-5-yl)methanone]",IC50,CDK2/Cyclin E1 [1],0.1 to 1 µM
same,IC50,CDK2/Cyclin E1 [2],5 to 10 µM
same,IC50,Kuramochi cells RB-WT,> 10 µM
"CC1(C)C[C@@H]1C(=O)N1CC2(CN(C(=O)c3cncs3)C[C@H]2COCc2ccn(C3CCCC3)n2)C1 [Compound I-38, ((S)-8-(((1-cyclopentyl-1H-pyrazol-3-yl)methoxy)methyl)-2-((S)-2,2-dimethylcyclopropane-1-carbonyl)-2,6-diazaspiro[3.4]octan-6-yl)(thiazol-5-yl)methanone]",IC50,CDK2/Cyclin E1 [1],0.1 to 1 µM
same,IC50,CDK2/Cyclin E1 [2],> 10 µM
same,IC50,Kuramochi cells RB-WT,> 10 µM
"CC1(C)C[C@@H]1C(=O)N1CC2(CN(C(=O)c3cncs3)C[C@H]2COCc2cccc(C3CCOCC3)c2)C1 [Compound I-39, ((S)-2-((S)-2,2-dimethylcyclopropane-1-carbonyl)-8-(((3-(tetrahydro-2H-pyran-4-yl)benzyl)oxy)methyl)-2,6-diazaspiro[3.4]octan-6-yl)(thiazol-5-yl)methanone]",IC50,CDK2/Cyclin E1 [1],0.1 to 1 µM
same,IC50,CDK2/Cyclin E1 [2],> 10 µM
same,IC50,Kuramochi cells RB-WT,> 10 µM
"CC1(C)C[C@@H]1C(=O)N1CC2(CN(C(=O)c3cncs3)C[C@H]2COCc2cccc(C3CCOCC3)n2)C1 [Compound I-49, (2-((S)-2,2-dimethylcyclopropane-1-carbonyl)-8-(((6-(tetrahydro-2H-pyran-4-yl)pyridin-2-yl)methoxy)methyl)-2,6-diazaspiro[3.4]octan-6-yl)(thiazol-5-yl)methanone]",IC50,CDK2/Cyclin E1 [1],1 to 10 µM and 0.1 to 1 µM
same,IC50,CDK2/Cyclin E1 [2],5 to 10 µM
same,IC50,Kuramochi cells RB-WT,> 10 µM
"O=C(O)C(Cc1cccc(-c2ccc(C(F)(F)F)cc2)n1)CC1CN(C(=O)c2cnn(Cc3ccc(C(F)(F)F)cc3)c2)CC12CN(C(=O)C1(C(F)(F)F)CC1)C2 (stereo not shown) [Compound I-50, 2-((6-(1-(4-(trifluoromethyl)benzyl)-1H-pyrazole-4-carbonyl)-2-(1-(trifluoromethyl)cyclopropane-1-carbonyl)-2,6-diazaspiro[3.4]octan-8-yl)methyl)-3-(6-(4-(trifluoromethyl)phenyl)pyridin-2-yl)propanoic acid]",IC50,CDK2/Cyclin E1 [1],> 10 µM
same,IC50,CDK2/Cyclin E1 [2],> 10 µM
same,IC50,Kuramochi cells RB-WT,> 10 µM
CC[C@H](CO)Nc1nc(NCc2ccccc2)c2ncn(C(C)C)c2n1 [roscovitine],arrest of cystic kidney disease,[3],effective arrest of cystic kidney disease
